Laboratory results as given in paper PMC4503722, “Novel Phenotypic Outcomes Identified for a Public Collection of Approved Drugs from a Publicly Accessible Panel of Assays” (PLoS ONE, 2015).
pIC50: −log10 of the molar value.

Key:
[1] = test system: HCT116; assay: cells; type: cell-based; details: basal
[2] = test system: Colo320; assay: cells; type: cell-based
[3] = test system: ECFC/ADSC co-culture cell nuclei number
[4] = test system: endothelial tube formation in co-cultures of ECFCs and ADSCs treated with VEGF; assay: cells; type: cell-based, human
[5] = test system: HT-29; assay: cells; type: cell-based
[6] = test system: SNU-C1; assay: cells; type: cell-based
[7] = test system: RKO; assay: cells; type: cell-based
[8] = test system: HCT116 cells treated with a GSK3β inhibitor; assay: cells; type: cell-based
[9] = test system: DLD-1; assay: cells; type: cell-based
[10] = test system: SW480; assay: cells; type: cell-based
[11] = assay number 26, GSK3b inhibitor pretreated

| SMILES | Basal_Viability ATP HCT116 IC50/EC50 ([1]; assay number 25) [µM] | Basal_Viability ATP Colo 320 IC50/EC50 ([2]; assay number 27, basal) [µM] | VEGF_ADSC\ECFC Angio Hoechst NucArea IC50/EC50 [3] [µM] | VEGF_ADSC\ECFC Angio CD31 TubeArea IC50/EC50 [4] [µM] | Basal_Viability ATP HT-29 IC50/EC50 ([5]; assay number 28, basal) [µM] | Basal_Viability ATP SNU-C1 IC50/EC50 ([6]; assay number 30, basal) [µM] | Basal_Viability ATP RKO IC50/EC50 ([7]; assay number 29, basal) [µM] | GSK3b inh pretreated_Viability ATP HCT116 IC50/EC50 [8, 11] [µM] | Basal_Viability ATP DLD-1 IC50/EC50 ([9]; assay number 23, basal) [µM] | Basal_Viability ATP SW480 IC50/EC50 ([10]; assay number 24, basal) [µM] | further results |
| --- | --- | --- | --- | --- | --- | --- | --- | --- | --- | --- | --- |
| C/C(=N\O)[C@@H](C)NCC(C)(C)CN[C@H](C)/C(C)=N/O [NCGC00319018-01] | > 20 | > 20 | > 10 | > 10 | > 20 | > 20 | > 20 | > 20 | > 20 | > 20 |  |
| Cc1cccc(C)c1NC(=O)CC12CCCN1CCC2 [NCGC00167454-02] | > 20 | > 20 | > 10 | > 10 | > 20 | > 20 | > 20 | > 20 | > 20 | > 20 |  |
| Clc1ccc(C(Cn2ccnc2)OCc2ccsc2Cl)c(Cl)c1 (stereo not shown) [NCGC00167430-04] | 4.0687 | 5.2288 | 9.466 | 4.9961 | > 20 | 2.1843 | 5.2538 | 2.843 | > 20 | > 20 |  |
| CCCCC(CC)COC(=O)CC(C(=O)OCC(CC)CCCC)S(=O)(=O)O (stereo not shown) [NCGC00164140-07] |  |  |  |  |  |  |  |  |  |  | pIC50 ([1]; assay number 25, read-out: Basal_Viability ATP HCT116 summarized IC50): < 4.70; pIC50 ([2]; assay number 27, basal, read-out: Basal_Viability ATP Colo 320 summarized IC50): < 4.70; pIC50 ([3]; read-out: VEGF_ADSC\ECFC Angio Hoechst NucArea summarized IC50): < 5.00; pIC50 ([4]; read-out: VEGF_ADSC\ECFC Angio CD31 TubeArea summarized IC50): < 5.00; pIC50 ([5]; assay number 28, basal, read-out: Basal_Viability ATP HT-29 summarized IC50): < 4.70; pIC50 ([6]; assay number 30, basal, read-out: Basal_Viability ATP SNU-C1 summarized IC50): < 4.70; pIC50 ([7]; assay number 29, basal, read-out: Basal_Viability ATP RKO summarized IC50): < 4.70; pIC50 ([8]; assay number 26, GSK3b inhibitor pretreated, read-out: GSK3b inh pretreated_Viability ATP HCT116 summarized IC50): 4.78; pIC50 ([9]; assay number 23, basal, read-out: Basal_Viability ATP DLD-1 summarized IC50): < 4.70; pIC50 ([10]; assay number 24, basal, read-out: Basal_Viability ATP SW480 summarized IC50): < 4.70 |
| Cc1cccc(Nc2cc(Cl)nc(SCC(=O)O)n2)c1C [NCGC00014702-15] |  |  |  |  |  |  |  |  |  |  | IC50/EC50, Basal_Viability ATP HCT116 (assay number 25) [1]: > 20 µM; IC50/EC50, Basal_Viability ATP Colo 320 (assay number 27) ([2]; basal): > 20 µM; IC50/EC50, VEGF_ADSC\ECFC Angio Hoechst NucArea (assay number 3) [3]: > 10 µM; IC50/EC50, VEGF_ADSC\ECFC Angio CD31 TubeArea (assay number 2) [4]: > 10 µM; IC50/EC50, Basal_Viability ATP HT-29 (assay number 28) ([5]; basal): > 20 µM; IC50/EC50, Basal_Viability ATP SNU-C1 (assay number 30) ([6]; basal): > 20 µM; IC50/EC50, Basal_Viability ATP RKO (assay number 29) ([7]; basal): > 20 µM; IC50/EC50, GSK3b inh pretreated_Viability ATP HCT116 (assay number 26) ([8]; GSK3b inh pretreated): > 20 µM; IC50/EC50, Basal_Viability ATP DLD-1 (assay number 23) ([9]; basal): > 20 µM; IC50/EC50, Basal_Viability ATP SW480 (assay number 24) ([10]; basal): > 20 µM |
| COC(=O)CCCCC(CCSS/C(CCO)=C(\C)N(C=O)Cc1cnc(C)nc1N)SC(C)=O (stereo not shown) [NCGC00319022-01] |  |  | > 10 | > 10 |  |  |  |  |  |  | Basal_Viability ATP HCT116 IC50/EC50 ([1]; assay number 25, concentration response): > 20 µM; Basal_Viability ATP Colo 320 IC50/EC50 ([2]; assay number 27, concentration response): > 20 µM; Basal_Viability ATP HT-29 IC50/EC50 ([5]; assay number 28, concentration response): > 20 µM; Basal_Viability ATP SNU-C1 IC50/EC50 ([6]; assay number 30, concentration response): > 20 µM; Basal_Viability ATP RKO IC50/EC50 ([7]; assay number 29, concentration response): > 20 µM; GSK3b inh pretreated_Viability ATP HCT116 IC50/EC50 ([8]; assay number 26, GSK3b inhibitor pretreated, concentration response): > 20 µM; Basal_Viability ATP DLD-1 IC50/EC50 ([9]; assay number 23, concentration response): > 20 µM; Basal_Viability ATP SW480 IC50/EC50 ([10]; assay number 24, concentration response): > 20 µM |
| CC(C)Cn1cnc2c1c(=O)n(C)c(=O)n2C [NCGC00168348-03] | > 20 | > 20 | > 10 | > 10 | > 20 | > 20 | > 20 | > 20 | > 20 | > 20 |  |
